Measurements reported in article PMC4018403, “Transient Receptor Potential Ankyrin 1 Receptor Activation In Vitro and In Vivo by Pro-tussive Agents: GRC 17536 as a Promising Anti-Tussive Therapeutic” (PLoS ONE, 2014).
Entries after “also recorded” stand apart in the source; their conditions may differ.

Legend:
[1] = tested on: citric acid induced cough response; experiment: Citric acid induced conscious cough model; assay type: in vivo, guinea pig; settings: 30 mg/kg i.p., 2 h before citric acid aerosol (0.4 M)
Description: Male Hartley guinea pigs (200–600 g, Harlan, UK) were acclimatized in cages (20–22°C, with a light/dark cycle of 12/12 hours) before beginning of the experiments and were maintained on an ad lib standard guinea pig pellet diet and water containing dietary amounts of ascorbic acid.
Cough was detected both by pressure change and by sound and recorded with a Buxco cough analyzer (Buxco, Wilmington, NC, USA) as described earlier. Guinea pigs were randomly assigned to various test groups and were treated with different doses of GRC 17536 or Dextromethorphan i.p. before tussive challenge. The Vehicle control group received only 0.5% methyl cellulose. Two hours after i.p. administration of vehicle or test compounds, animals were placed in individual whole body plethysmographs and were exposed to citric acid aerosol (0.4 M) and the incidences of cough were recorded for 10 minutes with the help of Buxco cough analyzer.
For in vitro experiments, data was analyzed using GraphPad Prism 3.0 (GraphPad Software Inc. San Diego, CA, USA). For in vivo experiment, data from the treatment groups were compared with the control group. Mean values were statistically analyzed by one-way analysis of variance (ANOVA) followed by the Dunnett's Multiple Comparisons Test to evaluate significant differences between groups.

TRPA1 [2] = biological target: T1, TRPA1 (Homo sapiens, UniProt O75762); experiment: Citric acid-induced Ca+2 influx in hTRPA1/CHO cells; assay type: cell-based; set-up: expressed in transfected cells
Description: (§1) Human lung fibroblast cells, CCD19-Lu (ATCC CCL-210) were obtained from American Type Culture Collection (ATCC; Rockville, MD, USA) and cultured in MEM supplemented with 10% FBS. Human pulmonary alveolar epithelial cell line A549 (ATCC CCL-185) was also obtained from ATCC and maintained in DMEM F-12 supplemented with 10% FBS. Both the cell types were cultured at 37°C in humidified air containing 5% CO2. Chinese hamster ovary (CHO) cells stably expressing human TRPA1 (hTRPA1/CHO), TRPV1 (hTRPV1/CHO), TRPV3 (hTRPV3/CHO), TRPV4 (hTRPV4/CHO and TRPM8 (hTRPM8/CHO were generated in-house and maintained in DMEM F-12 supplemented with 10% FBS and G418.
(§2) Fluorimetric and radiometric Ca^+2 influx assay was performed as described earlier. GRC 17536, GRC 17770, compound 7 or GRC 6211 was added to the cells 15 minutes prior to addition of agonist. Citric acid stock solution (1 M) was prepared in dH2O. Subsequent dilutions were made in Ca^+2, Mg^+2 free PBS (pH 7.3). No significant change in pH was observed upto 10 mM citric acid. At 30 mM concentration of citric acid, the pH of the solution dropped to 5.5. TLR ligands - LPS (10 µg/ml, TLR4), loxoribine (10 µM, TLR7) and ssRNA40 (1 µg/ml, TLR8) were dissolved in media and added to the cells for 16–18 hours. TRP selectivity of GRC 17536 and compound 7 was performed for TRPV1, TRPV3, TRPV4 and TRPM8 using Capsaicin (1 µM), 2-APB (1 mM), 4α-PDD (30 µM) and Icilin (250 nM) respectively, as agonist.

TRPV1 = biological target: T2, TRPV1 (Homo sapiens, UniProt Q8NER1); experiment: Citric acid effect on Ca+2 influx in hTRPV1/CHO cells; assay type: cell-based; settings: data not shown
T2 construct: expressed in transfected cells
Description: as §1
as §2, with “TRP selectivity of GRC 17536 and compound 7 was performed for TRPV1, TRPV3, TRPV4 and TRPM8 using Capsaicin (1 µM), 2-APB (1 mM), 4α-PDD (30 µM) and Icilin (250 nM) respectively, as agonist.” left out

TRPA1 [3] = biological target: T1, TRPA1; experiment: Citric acid-induced Ca+2 influx in CCD19-Lu cells; assay type: cell-based; set-up: A549 cells have been reported to express endogenous TRPA1; host or cells: A549
Description: as §1, §2

TRPA1 [4] = biological target: T1, TRPA1; experiment: Citric acid-induced Ca+2 influx in A549 cells; assay type: cell-based; set-up: A549 cells have been reported to express endogenous TRPA1; host or cells: A549
Description: as §1, §2

[5] = highest concentration of inducer, one range printed for CCD19-Lu and A549 together

T1 sequence (O75762 whole entry): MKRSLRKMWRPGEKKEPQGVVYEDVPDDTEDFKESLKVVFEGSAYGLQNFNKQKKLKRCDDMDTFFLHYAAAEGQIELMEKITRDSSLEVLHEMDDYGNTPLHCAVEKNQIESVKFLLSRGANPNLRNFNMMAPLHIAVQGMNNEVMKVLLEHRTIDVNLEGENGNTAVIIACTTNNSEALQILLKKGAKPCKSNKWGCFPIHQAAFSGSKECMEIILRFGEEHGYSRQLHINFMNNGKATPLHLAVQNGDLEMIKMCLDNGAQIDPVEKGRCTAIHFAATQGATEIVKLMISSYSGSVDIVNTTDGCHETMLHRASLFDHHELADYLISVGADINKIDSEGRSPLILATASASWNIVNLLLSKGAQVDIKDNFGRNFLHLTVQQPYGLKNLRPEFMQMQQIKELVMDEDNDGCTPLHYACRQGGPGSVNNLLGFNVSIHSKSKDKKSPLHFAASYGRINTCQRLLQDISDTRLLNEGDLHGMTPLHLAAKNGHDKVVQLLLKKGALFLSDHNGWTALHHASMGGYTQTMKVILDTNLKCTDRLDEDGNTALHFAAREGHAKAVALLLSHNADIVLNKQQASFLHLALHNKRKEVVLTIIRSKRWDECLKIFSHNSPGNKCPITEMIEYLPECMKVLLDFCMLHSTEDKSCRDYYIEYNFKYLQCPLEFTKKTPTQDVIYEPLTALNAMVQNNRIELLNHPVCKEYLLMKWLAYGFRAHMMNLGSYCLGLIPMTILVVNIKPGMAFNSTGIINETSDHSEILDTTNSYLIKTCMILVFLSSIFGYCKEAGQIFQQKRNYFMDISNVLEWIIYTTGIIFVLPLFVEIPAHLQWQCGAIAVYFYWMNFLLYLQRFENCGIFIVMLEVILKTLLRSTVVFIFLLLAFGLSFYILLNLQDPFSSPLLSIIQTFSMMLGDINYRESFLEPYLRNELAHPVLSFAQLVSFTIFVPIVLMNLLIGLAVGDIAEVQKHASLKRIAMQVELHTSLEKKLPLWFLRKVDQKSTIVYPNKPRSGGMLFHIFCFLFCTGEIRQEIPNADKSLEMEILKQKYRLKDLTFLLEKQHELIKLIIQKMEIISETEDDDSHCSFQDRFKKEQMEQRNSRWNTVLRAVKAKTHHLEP
T2 sequence (Q8NER1 whole entry): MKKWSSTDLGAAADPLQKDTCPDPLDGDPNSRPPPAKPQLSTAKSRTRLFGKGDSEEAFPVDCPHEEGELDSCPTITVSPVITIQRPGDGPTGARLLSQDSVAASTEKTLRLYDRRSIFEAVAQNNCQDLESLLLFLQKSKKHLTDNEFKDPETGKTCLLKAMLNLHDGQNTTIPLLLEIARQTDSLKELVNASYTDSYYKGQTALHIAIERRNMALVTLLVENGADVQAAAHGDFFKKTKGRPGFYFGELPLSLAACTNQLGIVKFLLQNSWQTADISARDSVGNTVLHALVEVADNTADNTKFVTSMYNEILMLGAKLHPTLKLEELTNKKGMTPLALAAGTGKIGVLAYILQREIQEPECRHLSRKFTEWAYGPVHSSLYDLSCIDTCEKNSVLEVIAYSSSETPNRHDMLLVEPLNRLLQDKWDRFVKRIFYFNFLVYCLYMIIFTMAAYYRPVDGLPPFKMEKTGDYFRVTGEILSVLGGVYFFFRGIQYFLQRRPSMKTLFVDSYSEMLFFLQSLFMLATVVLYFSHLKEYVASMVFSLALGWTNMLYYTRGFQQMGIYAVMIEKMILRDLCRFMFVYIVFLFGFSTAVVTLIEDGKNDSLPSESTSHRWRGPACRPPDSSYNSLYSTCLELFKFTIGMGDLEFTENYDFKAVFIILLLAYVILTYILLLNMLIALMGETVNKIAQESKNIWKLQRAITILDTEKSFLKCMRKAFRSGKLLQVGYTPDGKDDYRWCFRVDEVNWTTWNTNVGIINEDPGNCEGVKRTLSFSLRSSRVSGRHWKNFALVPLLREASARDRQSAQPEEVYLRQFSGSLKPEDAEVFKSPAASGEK

SMILES | Inhibition of cough response [1] [%] | Citric acid concentration of peak Ca+2 influx (TRPA1 [2]) [mM] | Citric acid concentration that elicited a drop in Ca+2 influx (TRPA1 [2]) [mM] | Ca+2 influx over basal (TRPA1 [2]; highest concentration of citric acid) [fold] | Ca+2 influx response to citric acid (TRPV1) | Citric acid concentration of maximum Ca+2 influx (TRPA1 [3]) [mM] | Citric acid concentration that elicited a drop in Ca+2 influx (TRPA1 [3]) [mM] | Induction of Ca+2 influx over basal (TRPA1 [3]; [5]) | Citric acid concentration of peak Ca+2 influx (TRPA1 [4]) [mM] | Citric acid concentration that elicited a drop in Ca+2 influx (TRPA1 [4]) [mM] | Induction of Ca+2 influx over basal (TRPA1 [4]; [5])
COc1ccc2c(c1)[C@]13CCCC[C@@H]1[C@H](C2)N(C)CC3 [Dextromethorphan, reference compound] | 66 | – | – | – | – | – | – | – | – | – | –
O=C(O)CC(O)(CC(=O)O)C(=O)O [citric acid] | – | 3 | 10 | ~40 | lack of any significant response; also recorded: did not observe any increase | 10 | 30 | 4–20 fold | 3 | 5 | 4–20 fold
